{"source": "patent US12459957B2", "about": "“Therapeutic compounds and methods” (GENENTECH, INC., priority 2021, dated 2025)", "note": "pIC50: −log10 of the molar value."}
{"test_system": "neutrophils (PMA-stimulated ROS)", "test": "ROS detection assay (ROS-Glo, H2O2)", "type": "cell-based", "conditions": "Neutrophil; human neutrophils, 30 min preincubation, 50 nM PMA for 30 min", "method": "ROS were measured in neutrophils using the ROS-Glo bioluminescent assay (Promega) for the direct detection of H2O2. Neutrophils were isolated from fresh human blood using a biphasic Histopaque gradient as described here. Cells (100 uL per well) were plated in 96-well plates at a density of 200,000 cells/mL in high glucose DMEM medium. Cells were preincubated with either DMSO vehicle or compounds (10-point dilution curve starting at 2 uM with 3-fold serial dilution) for 30 min, and then stimulated with 50 nM PMA for 30 min. Luminescence, after the addition of H2O2 substrate solution for 20 min, and then ROS-Glo detection solution for 20 min, was recorded on a luminescence plate reader. The fifty percent inhibitory concentration (IC50) was determined with GraphPad Prism by plotting the assay output (RLU) versus the logarithm of the compound concentration using a non-linear sigmoid with variable slope algorithm with the default curve-fitting parameters in the Prism software."}
{"compound": "CC(=O)Nc1ccc2c(c1)OCc1cc(-c3cnn(C(C)C)c3)nn1C2", "note": "[Example 108]", "pIC50": 6.55}
{"compound": "CC(=O)Nc1ccc2c(c1)OCc1cc(-c3cnn(C4CC4)c3)nn1C2", "note": "[Example 109]", "pIC50": 6.32}
{"compound": "CC(=O)Nc1ccc2c(c1)OCc1cc(-c3cn(C)nc3C(F)(F)F)nn1C2", "note": "[Example 110]", "pIC50": 5.80}
{"compound": "CC(=O)Nc1ccc2c(c1)OCc1cc(-c3c[nH]nc3C(C)C)nn1C2", "note": "[Example 111]", "pIC50": 5.68}
{"compound": "CC(=O)Nc1ccc2c(c1)OCc1cc(-c3cnn(C)c3)nn1C2", "note": "[Example 112]", "pIC50": 5.52}
{"compound": "CC(=O)Nc1ccc2c(c1)OCc1cc(-c3cn(C)nc3C)nn1C2", "note": "[Example 113]", "pIC50": 5.84}
{"compound": "CCn1cc(-c2cc3n(n2)Cc2ccc(NC(C)=O)cc2OC3)cn1", "note": "[Example 114]", "pIC50": 6.39}
{"compound": "CC(=O)Nc1ccc2c(c1)OCc1cc(-c3cnn(C4CCCCO4)c3)nn1C2", "note": "(centres unmarked) [Example 115]", "pIC50": 5.11}
{"test_system": "neutrophils (PMA-stimulated NETosis)", "test": "Quantification of NETosis using SYTOX Green", "type": "cell-based, human", "conditions": "compound at 5 uM; NET-forming cells as percentage of total cells; vehicle 79.66, untreated 14.54", "source_text": "Semi-automated analysis of both phase and fluorescence images of SYTOX Green-stained neutrophils used a MATLAB algorithm. Total cells were counted by scoring phase standard deviation and radial symmetry. NETosis was classified in cells by measuring the DNA area in the fluorescence image and comparing with a select internal training set for each experiment. Unstimulated cells and PMA-stimulated, pyocyanin-inhibited cells served as negative controls. PMA-stimulated cells served as a positive control. NET-forming cells are presented as a percentage of total cells.", "units": {"5 uM (% NETosis)": "%"}}
{"compound": "CC(=O)Nc1ccc2c(c1)OCc1cc(-c3ccnn3C3CC3)nn1C2", "note": "[Example 60]", "5 uM (% NETosis)": 63.78}
{"compound": "COc1cnccc1-c1cc2n(n1)Cc1ccc(NC(C)=O)cc1OC2", "note": "[Example 61]", "5 uM (% NETosis)": 78.57}
{"compound": "CC(=O)Nc1ccc2c(c1)OCc1cc(-c3ccnc(C4CC4)c3)nn1C2", "note": "[Example 62]", "5 uM (% NETosis)": 41.23}
{"compound": "CC(=O)Nc1ccc2c(c1)OCc1cc(-c3cnc4[nH]ccc4c3)nn1C2", "note": "[Example 63]", "5 uM (% NETosis)": 80.04}
{"compound": "CC(=O)Nc1ccc2c(c1)OCc1cc(-c3ccc(S(C)(=O)=O)nc3)nn1C2", "note": "[Example 64]", "5 uM (% NETosis)": 75.82}
{"compound": "CC(=O)Nc1ccc2c(c1)OCc1cc(-c3cccnc3C3CC3)nn1C2", "note": "[Example 65]", "5 uM (% NETosis)": 83.56}
{"compound": "CC(=O)Nc1ccc2c(c1)OCc1cc(-c3cn[nH]c3C)nn1C2", "note": "[Example 66]", "5 uM (% NETosis)": 84.91}
{"compound": "CC(=O)Nc1ccc2c(c1)OCc1cc(-c3ccnc(C#N)c3)nn1C2", "note": "[Example 69]", "5 uM (% NETosis)": 66.18}
{"compound": "COc1ccncc1-c1cc2n(n1)Cc1ccc(NC(C)=O)cc1OC2", "note": "[Example 70]", "5 uM (% NETosis)": 78.10}
{"compound": "COc1cncc(-c2cc3n(n2)Cc2ccc(NC(C)=O)cc2OC3)c1", "note": "[Example 71]", "5 uM (% NETosis)": 69.95}
{"compound": "CC(=O)Nc1ccc2c(c1)OCc1cc(-c3cnccc3C#N)nn1C2", "note": "[Example 72]", "5 uM (% NETosis)": 80.10}
{"compound": "CNC(=O)c1ccc(-c2cc3n(n2)Cc2ccc(NC(C)=O)cc2OC3)cn1", "note": "[Example 73]", "5 uM (% NETosis)": 82.63}
{"compound": "CC(=O)Nc1ccc2c(c1)OCc1cc(-c3c(C)n[nH]c3C)nn1C2", "note": "[Example 75]", "5 uM (% NETosis)": 85.26}
{"compound": "CC(=O)Nc1ccc2c(c1)OCc1cc(-c3ccccc3C3CC3)nn1C2", "note": "[Example 76]", "5 uM (% NETosis)": 63.32}
{"compound": "COc1ncc(-c2cc3n(n2)Cc2ccc(NC(C)=O)cc2OC3)cn1", "note": "[Example 77]", "5 uM (% NETosis)": 86.51}
{"compound": "CC(=O)Nc1ccc2c(c1)OCc1cc(-c3cccc(C#N)n3)nn1C2", "note": "[Example 78]", "5 uM (% NETosis)": 58.91}
{"compound": "CC(=O)Nc1ccc2c(c1)OCc1cc(-c3ccc(N4CCCC4)nc3)nn1C2", "note": "[Example 79]", "5 uM (% NETosis)": 83.33}
{"compound": "CC(=O)Nc1ccc2c(c1)OCc1cc(-c3cccc(S(C)(=O)=O)c3)nn1C2", "note": "[Example 80]", "5 uM (% NETosis)": 46.95}
{"compound": "CC(=O)Nc1ccc2c(c1)OCc1cc(-c3ccccc3S(C)(=O)=O)nn1C2", "note": "[Example 81]", "5 uM (% NETosis)": 84.34}
{"compound": "CC(=O)Nc1ccc2c(c1)OCc1cc(-c3ccc(N(C)C(C)=O)cc3)nn1C2", "note": "[Example 82]", "5 uM (% NETosis)": 77.67}
{"compound": "COc1ccc(-c2cc3n(n2)Cc2ccc(NC(C)=O)cc2OC3)c(C)c1", "note": "[Example 83]", "5 uM (% NETosis)": 51.91}
{"compound": "CC(=O)Nc1ccc2c(c1)OCc1cc(-c3ccc4c(c3)NC(=O)C4)nn1C2", "note": "[Example 84]", "5 uM (% NETosis)": 42.93}
{"compound": "COc1cc(-c2cc3n(n2)Cc2ccc(NC(C)=O)cc2OC3)c(OC)nn1", "note": "[Example 85]", "5 uM (% NETosis)": 74.51}
{"compound": "CC(=O)Nc1ccc2c(c1)OCc1cc(-c3cccc4[nH]c(=O)[nH]c34)nn1C2", "note": "[Example 86]", "5 uM (% NETosis)": 84.35}
{"compound": "CC(=O)Nc1ccc2c(c1)OCc1cc(-c3ccc4[nH]c(=O)oc4c3)nn1C2", "note": "[Example 87]", "5 uM (% NETosis)": 78.92}
{"compound": "CC(=O)Nc1ccc2c(c1)OCc1cc(-c3ccccc3NS(C)(=O)=O)nn1C2", "note": "[Example 88]", "5 uM (% NETosis)": 71.64}
{"compound": "CC(=O)Nc1ccc2c(c1)OCc1cc(-c3cccc4c3CN(C)C4)nn1C2", "note": "[Example 89]", "5 uM (% NETosis)": 84.44}
{"compound": "CC(=O)Nc1ccc2c(c1)OCc1cc(-c3cccc4c3CN(C)C4=O)nn1C2", "note": "[Example 90]", "5 uM (% NETosis)": 78.83}
{"compound": "CC(=O)Nc1ccc2c(c1)OCc1cc(-c3ccnc4[nH]ccc34)nn1C2", "note": "[Example 91]", "5 uM (% NETosis)": 77.13}
{"compound": "CC(=O)Nc1ccc2c(c1)OCc1cc(-c3cnn(CCN(C)C)c3)nn1C2", "note": "[Example 92]", "5 uM (% NETosis)": 81.09}
{"compound": "CC(=O)Nc1ccc2c(c1)OCc1cc(-c3cnn(CC(F)(F)F)c3)nn1C2", "note": "[Example 93]", "5 uM (% NETosis)": 73.17}
{"compound": "COc1cccc(C#N)c1-c1cc2n(n1)Cc1ccc(NC(C)=O)cc1OC2", "note": "[Example 94]", "5 uM (% NETosis)": 90.90}
{"compound": "CC(=O)Nc1ccc2c(c1)OCc1cc(-c3ccc(S(=O)(=O)N4CCOCC4)cc3)nn1C2", "note": "[Example 95]", "5 uM (% NETosis)": 85.90}
{"compound": "CC(=O)Nc1ccc2c(c1)OCc1cc(-c3ccc(S(=O)(=O)N4CCN(C)CC4)cc3)nn1C2", "note": "[Example 96]", "5 uM (% NETosis)": 82.37}
{"compound": "CNS(=O)(=O)c1ccccc1-c1cc2n(n1)Cc1ccc(NC(C)=O)cc1OC2", "note": "[Example 97]", "5 uM (% NETosis)": 81.93}
{"compound": "CC(=O)NCc1cc(-c2cc3n(n2)Cc2ccc(NC(C)=O)cc2OC3)ccc1F", "note": "[Example 98]", "5 uM (% NETosis)": 48.65}
{"compound": "CNC(=O)c1ccc(F)c(-c2cc3n(n2)Cc2ccc(NC(C)=O)cc2OC3)c1", "note": "[Example 99]", "5 uM (% NETosis)": 84.59}
{"compound": "CC(=O)Nc1ccc2c(c1)OCc1cc(-c3cccc(C(=O)N(C)C)c3)nn1C2", "note": "[Example 100]", "5 uM (% NETosis)": 85.05}
{"compound": "CNC(=O)c1cccc(-c2cc3n(n2)Cc2ccc(NC(C)=O)cc2OC3)c1", "note": "[Example 101]", "5 uM (% NETosis)": 85.18}
{"compound": "CC(=O)Nc1ccc2c(c1)OCc1cc(-c3ccnc(NC(C)=O)c3)nn1C2", "note": "[Example 102]", "5 uM (% NETosis)": 85.50}
{"compound": "CC(=O)Nc1ccc2c(c1)OCc1cc(-c3cccc(N(C)C(C)=O)c3)nn1C2", "note": "[Example 103]", "5 uM (% NETosis)": 75.39}
{"compound": "CC(=O)Nc1cccc(-c2cc3n(n2)Cc2ccc(NC(C)=O)cc2OC3)c1", "note": "[Example 104]", "5 uM (% NETosis)": 26.79}
{"compound": "CC(=O)Nc1ccc2c(c1)OCc1cc(-c3ccccc3NC(C)=O)nn1C2", "note": "[Example 105]", "5 uM (% NETosis)": 70.78}
{"compound": "CC(=O)Nc1ccc2c(c1)OCc1cc(-c3ccc(C(=O)N4CCOCC4)cc3)nn1C2", "note": "[Example 106]", "5 uM (% NETosis)": 86.21}
{"compound": "CC(=O)Nc1ccc2c(c1)OCc1cc(-c3ccc(CN(C)C)cc3)nn1C2", "note": "[Example 107]", "5 uM (% NETosis)": 85.67}
